Results: PubChem BioAssay (NCI)
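Five concentrations, 48 hours, 96-well plates. TGI is the concentration that stops growth completely.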

Assays:
Assay in all cases: inhibition of tumour cell growth, NCI panel, 48 h
A549 NSCLC = system: A549 NSCLC
ACHN renal = system: ACHN renal
BT-549 breast = system: BT-549 breast
CAKI-1 renal = system: CAKI-1 renal
CCRF-CEM leukemia = system: CCRF-CEM leukemia
COLO 205 colon = system: COLO 205 colon
DU-145 prostate = system: DU-145 prostate
EKVX NSCLC = system: EKVX NSCLC
HCT-116 colon = system: HCT-116 colon
HCT-15 colon = system: HCT-15 colon
HL-60(TB) leukemia = system: HL-60(TB) leukemia
HOP-62 NSCLC = system: HOP-62 NSCLC
HS 578T breast = system: HS 578T breast
HT29 colon = system: HT29 colon
IGROV1 ovarian = system: IGROV1 ovarian
K-562 leukemia = system: K-562 leukemia
KM12 colon = system: KM12 colon
LOX IMVI melanoma = system: LOX IMVI melanoma
M14 melanoma = system: M14 melanoma
MALME-3M melanoma = system: MALME-3M melanoma
MCF7 breast = system: MCF7 breast
MDA-MB-231 breast = system: MDA-MB-231 breast
MDA-MB-435 = system: MDA-MB-435
MDA-N = system: MDA-N
MOLT-4 leukemia = system: MOLT-4 leukemia
NCI-H23 lung = system: NCI-H23 lung
NCI-H460 lung = system: NCI-H460 lung
NCI/ADR-RES ovarian = system: NCI/ADR-RES ovarian
OVCAR-3 ovarian = system: OVCAR-3 ovarian
OVCAR-4 ovarian = system: OVCAR-4 ovarian
OVCAR-5 ovarian = system: OVCAR-5 ovarian
OVCAR-8 ovarian = system: OVCAR-8 ovarian
PC-3 prostate = system: PC-3 prostate
RPMI-8226 leukemia = system: RPMI-8226 leukemia
RXF 393 renal = system: RXF 393 renal
SF-268 CNS = system: SF-268 CNS
SF-295 CNS = system: SF-295 CNS
SF-539 CNS = system: SF-539 CNS
SK-MEL-28 melanoma = system: SK-MEL-28 melanoma
SK-MEL-5 melanoma = system: SK-MEL-5 melanoma
SK-OV-3 ovarian = system: SK-OV-3 ovarian
SN12C renal = system: SN12C renal
SNB-19 CNS = system: SNB-19 CNS
SNB-75 CNS = system: SNB-75 CNS
SR leukemia = system: SR leukemia
SW-620 colon = system: SW-620 colon
T-47D breast = system: T-47D breast
TK-10 renal = system: TK-10 renal
U251 CNS = system: U251 CNS
UACC-257 melanoma = system: UACC-257 melanoma
UACC-62 melanoma = system: UACC-62 melanoma
UO-31 renal = system: UO-31 renal
786-0 renal = system: 786-0 renal
HCC-2998 colon = system: HCC-2998 colon
NCI-H226 lung = system: NCI-H226 lung
NCI-H522 lung = system: NCI-H522 lung

Measured: TGI

COc1ccc(CCn2nccc2C)cc1
> 100 µM: A549 NSCLC | ACHN renal | BT-549 breast | CAKI-1 renal | CCRF-CEM leukemia | COLO 205 colon | DU-145 prostate | EKVX NSCLC | HCT-116 colon | HCT-15 colon | HL-60(TB) leukemia | HOP-62 NSCLC | HS 578T breast | HT29 colon | IGROV1 ovarian | K-562 leukemia | KM12 colon | LOX IMVI melanoma | M14 melanoma | MALME-3M melanoma | MCF7 breast | MDA-MB-231 breast | MDA-MB-435 | MDA-N | MOLT-4 leukemia | NCI-H23 lung | NCI-H460 lung | NCI/ADR-RES ovarian | OVCAR-3 ovarian | OVCAR-4 ovarian | OVCAR-5 ovarian | OVCAR-8 ovarian | PC-3 prostate | RPMI-8226 leukemia | RXF 393 renal | SF-268 CNS | SF-295 CNS | SF-539 CNS | SK-MEL-28 melanoma | SK-MEL-5 melanoma | SK-OV-3 ovarian | SN12C renal | SNB-19 CNS | SNB-75 CNS | SR leukemia | SW-620 colon | T-47D breast | TK-10 renal | U251 CNS | UACC-257 melanoma | UACC-62 melanoma | UO-31 renal

CN(C)c1ccc(/C=C2\Oc3ccccc3C2=O)cc1
> 100 µM: 786-0 renal | A549 NSCLC | ACHN renal | BT-549 breast | CAKI-1 renal | CCRF-CEM leukemia | COLO 205 colon | DU-145 prostate | EKVX NSCLC | HCC-2998 colon | HCT-116 colon | HCT-15 colon | HL-60(TB) leukemia | HOP-62 NSCLC | HS 578T breast | HT29 colon | IGROV1 ovarian | K-562 leukemia | KM12 colon | M14 melanoma | MCF7 breast | MDA-MB-231 breast | MDA-MB-435 | MDA-N | MOLT-4 leukemia | NCI-H226 lung | NCI-H23 lung | NCI-H460 lung | NCI-H522 lung | NCI/ADR-RES ovarian | OVCAR-3 ovarian | OVCAR-4 ovarian | OVCAR-8 ovarian | PC-3 prostate | RPMI-8226 leukemia | RXF 393 renal | SF-268 CNS | SF-295 CNS | SF-539 CNS | SK-MEL-28 melanoma | SK-MEL-5 melanoma | SK-OV-3 ovarian | SN12C renal | SNB-19 CNS | SNB-75 CNS | SR leukemia | SW-620 colon | T-47D breast | TK-10 renal | U251 CNS | UACC-257 melanoma | UACC-62 melanoma | UO-31 renal

CN(C(=O)CC(=O)CP(=O)(c1ccccc1)c1ccccc1)c1ccccc1
> 100 µM: 786-0 renal | A549 NSCLC | ACHN renal | BT-549 breast | CAKI-1 renal | CCRF-CEM leukemia | COLO 205 colon | DU-145 prostate | EKVX NSCLC | HCC-2998 colon | HCT-116 colon | HCT-15 colon | HL-60(TB) leukemia | HOP-62 NSCLC | HS 578T breast | HT29 colon | IGROV1 ovarian | K-562 leukemia | KM12 colon | M14 melanoma | MCF7 breast | MDA-MB-231 breast | MDA-MB-435 | MDA-N | MOLT-4 leukemia | NCI-H226 lung | NCI-H23 lung | NCI-H460 lung | NCI-H522 lung | NCI/ADR-RES ovarian | OVCAR-3 ovarian | OVCAR-4 ovarian | OVCAR-8 ovarian | PC-3 prostate | RPMI-8226 leukemia | RXF 393 renal | SF-268 CNS | SF-295 CNS | SF-539 CNS | SK-MEL-28 melanoma | SK-MEL-5 melanoma | SK-OV-3 ovarian | SN12C renal | SNB-19 CNS | SNB-75 CNS | SR leukemia | SW-620 colon | T-47D breast | TK-10 renal | U251 CNS | UACC-257 melanoma | UACC-62 melanoma | UO-31 renal
